# Laboratory results taken from US8841292B2, “Induced hypothermia” (Weil Institute of Critical Care Medicine, priority 2011, dated 2014).
# Columns and labels:
# porcine model of CPR = test: Proposed porcine model study of cardiac arrest and resuscitation; format: in vivo, Sus scrofa; details: hypothesis
# Excerpt: A porcine model of cardiac arrest and resuscitation in domestic pigs, weighing between 40±2 kg, is utilized for a proposed study that applicant is conducting. The porcine model is selected because (1) it has a large body mass and the timing of reduction in body temperature during hypothermia is close to that of the human. […] (3) A large animal model facilitates non-invasive measurements of myocardial function by echocardiographic methods, preserving an intact chest wall for conventional CPR, and specifically, precordial compression. (4) Our research team has had extensive experience for more than 20 years with the porcine model, under conditions of cardiac arrest and resuscitation.
# Our aims are to investigate the effects of WIN55, 212-2, the cannabinoid CB1/CB2 receptor agonist, when administered immediately following resuscitation with or without physical surface body cooling on blood temperature, post resuscitation myocardial and cerebral functions, and duration of survival in our porcine model of CPR. We hypothesize that when WIN55, 212-2 is administered immediately following resuscitation, it will rapidly achieve the target blood temperature (34° C., <3 hours), therefore improving post-resuscitation myocardial and cerebral functions, and duration of survival. We further hypothesize that when WIN55, 212-2 is administered in combination with physical surface body cooling, the combination will further reduce the duration for achieving target blood temperature (<1 hour). It will therefore further improve post-resuscitation myocardial and cerebral functions, and duration of survival.
# To test our hypotheses, the independent variables are the WIN55, 212-2 and WIN55, 212-2 with physical surface cooling. […]
# In experiments, male domestic pigs, weighing 40±2 kg, are fasted overnight except for free access to water. […] End-tidal PC02 is monitored with an infrared analyzer (Model 01R-7101A, Nihon Kohden Corp, Tokyo, Japan). […]
# [1] = test system: rat model of cardiac arrest and resuscitation; test: Rat model of cardiac arrest and resuscitation; format: in vivo
# Procedure: The effects of WIN 55, 212-2 were investigated initially in our rat model of cardiac arrest and resuscitation. […] Ventricular fibrillation was induced and untreated for 6 mins and followed by 8 mins of CPR. Resuscitation was then attempted with defibrillation. WIN 55, 212-2 was infused intravenously 10 mins after resuscitation in a dose of 1 mg/kg/hour and continued for 6 hours. The body temperature decreased from 37 to 34° C. within 4 hours after infusion (FIG. 1).
# normal rats = details: cited from earlier work
# cannabinoid receptors = details: versus other neurotransmitter and ion channels; cited from earlier work
SMILES,"blockade of the effects of WIN55, 212-2 (porcine model of CPR; pre-treatment with selective CB1 antagonist)",time after infusion for body temperature decrease to 34 ° C. ([1]; 1 mg/kg/hour i.v. infusion for 6 hours),"body temperature decreased to ([1]; 1 mg/kg/hour i.v. infusion from 10 mins after resuscitation for 6 hours, from 37 ° C.)",survival ([1]; all animals that received the drug),neurological deficits ([1]; survivors),"post resuscitation myocardial function (ejection fraction, FIG. 2) ([1]; versus controls)","time to achieve target blood temperature (34° C.) (porcine model of CPR; administered immediately following resuscitation, drug alone)",time to achieve target blood temperature (porcine model of CPR; in combination with physical surface body cooling),"body temperature reduced to (normal rats; intramuscular injection, from 37 ° C.)",duration hypothermia was maintained (normal rats; intramuscular injection),"hypothermia, dose dependence (normal rats; intramuscular injection)",hypothermia effect with selective CB1 antagonist (normal rats; selective CB1 antagonist given),selectivity for cannabinoid receptors (cannabinoid receptors)
Cc1c(C(=O)NN2CCCCC2)nn(-c2ccc(Cl)cc2Cl)c1-c1ccc(Cl)cc1 [SR141716A],completely blocked,,,,,,,,,,,,
"Cc1c(C(=O)c2cccc3ccccc23)c2cccc3c2n1[C@H](CN1CCOCC1)CO3 [WIN 55, 212-2]",,≤ 4 h,34 °C,more than 72 hours,minimal neurological deficits,significantly better than the controls,< 3 h,< 1 h,34 °C,up to 5 hours,produced hypothermia in a dose-dependent manner,completely blocked,highly selective
